From patent publication US20040023299A1, “Diagnosis of liver disease” (priority 2000, published 2004)
Read-outs that look alike come from different tables or passages of the source.

Details: rats
Experimental: Chronic liver disease was established by exposing the animals of the 3 experimental groups to weekly intra-gastric administration of CCl4. A starting dose of 80 μl was used and increased weekly, based on the weight of the animals. Nothing was administered to the control group. All the animals were weighed on day one and the experimental groups started with their 80 μl CCl4. After three days the animals were again weighed to determine the dose for the second week. That was the procedure for the administration of the CC4 l during the entire experiment. On day three of week five, the scanning of group 1 started. Anaesthesia in each case was induced with an intraperitoneal injection of sodium pentobarbitone 6% solution (Sagatal, Kryon Laboratories Pty Ltd., Benrose, Gauteng, S. A). […] After the completion of the acquisition, the rats were terminated by an intravenous overdose of sodium pentobarbitone. The livers were taken out, stored in a 10% formalin solution until the next day and then processed and stained with Haematoxylin and Eosin, Reticulin and Cyrus red.
Liver sections of the rats were stained with H&E, Masson Trichrome and Reticulin stains. The amount of necrosis and fibrosis were interpreted by an experienced hepatopathologist and scored according to a classification system whereby 1 was mild necrosis or fibrosis and 4 severe.

[1] = weekly intra-gastric CCl4, after 5 weeks
[2] = weekly intra-gastric CCl4, after 7 weeks
[3] = weekly intra-gastric CCl4, after 9 weeks

## ClC(Cl)(Cl)Cl [CCl4]
[1]
  average score for fibrosis (1 mild, 4 severe): 1.9
  average score for necrosis (1 mild, 4 severe): 1.9
[2]
  average score for fibrosis (1 mild, 4 severe): 1.9
  average score for necrosis (1 mild, 4 severe): 1.7
[3]
  average score for fibrosis (1 mild, 4 severe): 2.1
  average score for necrosis (1 mild, 4 severe): 1.4
